Assay [1] deals with P70S6K (Thr389) phosphorylation (mTORC1) in MDA-MB-468 cells. Kind of assay: Cell based AlphaLISA assay, mTOR kinase cellular assay: inhibition of p-P70S6K (T389) in MDA-MB-468 cells. As to conditions: Homo sapiens, read-out: pIC50 for Inhibition of mTORC1 and mTORC2 Substarte Phosphorylation p-P70S6K-(T389) (converted). Put shortly: (§1)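 MDA-MB-468 cells treated with compound at 0.017-1,000 nM for two to four hours at 37° C, then lysed. Phospho-AKT1/2/3 S473, 4EBP1 T37/46 and P70S6K T389 quantified by AlphaLISA SureFire Ultra in duplicate; IC50 from normalized regression with control-based normalization.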
A general note: Alpha assays give light when donor and acceptor beads are brought close together.

Assay [2] has as its system AKT1/2/3 (Ser473) phosphorylation (mTORC2) in MDA-MB-468 cells. Kind of assay: Cell based AlphaLISA assay, mTOR kinase cellular assay: inhibition of p-Akt (S473) in MDA-MB-468 cells. The note with it: Homo sapiens, read-out: pIC50 for Inhibition of mTORC1 and mTORC2 Substarte Phosphorylation p-AKT1/2/3-(S473) (converted). Put shortly: as §1
Assay [3] has as its system 4EBP1 (Thr37/46) phosphorylation (mTORC1) in MDA-MB-468 cells. In words: Cell based AlphaLISA assay, mTOR kinase cellular assay: inhibition of p-4E-BP1 (T37/46) in MDA-MB-468 cells. The note with it: Homo sapiens, read-out: pIC50 for Inhibition of mTORC1 and mTORC2 Substarte Phosphorylation p-4E-BP1-(T37/46) (converted). In outline:
as §1

Molecules are shown by their SMILES. Some results are limits rather than exact numbers.

For the molecule `CO[C@H]1C[C@@H]2CC[C@@H](C)[C@@](O)(O2)C(=O)C(=O)N2CCCC[C@H]2C(=O)O[C@H]([C@H](C)C[C@@H]2CC[C@@H](OC(=O)NCc3cnc(N4CCN(C(=O)CCOCCN5CCN(c6ncc(C(=O)N7CCc8cc(Cn9nc(-c%10ccc%11oc(N)nc%11c%10)c%10c(N)ncnc%109)ccc8C7)cn6)CC5)CC4)nc3)[C@H](OC)C2)CC(=O)[C@H](C)/C=C(\C)[C@@H](O)[C@@H](OC)C(=O)[C@H](C)C[C@H](C)/C=C/C=C/C=C/1C` [Example 51], the figures for the IC50 in assay [1], in assay [2] and in assay [3] were at most 1 nM, at most 3.16 nM and at most 3.16 nM, respectively.

For `CO[C@H]1C[C@@H]2CC[C@@H](C)[C@@](O)(O2)C(=O)C(=O)N2CCCC[C@H]2C(=O)O[C@H]([C@H](C)C[C@@H]2CC[C@@H](OC(=O)N3CCc4nc(N5CCN(c6ncc(C(=O)N7CCN(c8ncc(C(=O)N9CCc%10cc(Cn%11nc(-c%12ccc%13oc(N)nc%13c%12)c%12c(N)ncnc%12%11)ccc%10C9)cn8)CC7)cn6)CC5)ncc4C3)[C@H](OC)C2)CC(=O)[C@H](C)/C=C(\C)[C@@H](O)[C@@H](OC)C(=O)[C@H](C)C[C@H](C)/C=C/C=C/C=C/1C` [Example 62], the values for the IC50 in assay [1], in assay [2] and in assay [3] were 1 to 10 nM, above 1000 nM and above 1000 nM, respectively.

Take `CO[C@H]1C[C@@H]2CC[C@@H](C)[C@@](O)(O2)C(=O)C(=O)N2CCCC[C@H]2C(=O)O[C@H]([C@H](C)C[C@@H]2CC[C@@H](OC(=O)NCc3cnc(N4CCN(C(=O)CCOCCN5CCN(c6ncc(C(=O)NCCOCCC(=O)NCCCCn7nc(-c8ccc9oc(N)nc9c8)c8c(N)ncnc87)cn6)CC5)CC4)nc3)[C@H](OC)C2)CC(=O)[C@H](C)/C=C(\C)[C@@H](O)[C@@H](OC)C(=O)[C@H](C)C[C@H](C)/C=C/C=C/C=C/1C` [Example 63]: the IC50 was at most 1 nM in assay [1], at most 3.16 nM in assay [2] and at most 3.16 nM in assay [3].

With `CO[C@H]1C[C@@H]2CC[C@@H](C)[C@@](O)(O2)C(=O)C(=O)N2CCCC[C@H]2C(=O)O[C@H]([C@H](C)C[C@@H]2CC[C@@H](OC(=O)NCc3cnc(N4CCN(C(=O)CCOCCN5CCN(c6ncc(C(=O)NCCOCCC(=O)N7CCc8cc(Cn9nc(-c%10ccc%11oc(N)nc%11c%10)c%10c(N)ncnc%109)ccc8C7)cn6)CC5)CC4)nc3)[C@H](OC)C2)CC(=O)[C@H](C)/C=C(\C)[C@@H](O)[C@@H](OC)C(=O)[C@H](C)C[C@H](C)/C=C/C=C/C=C/1C` [Example 64], the values for the IC50 in assay [1], in assay [2] and in assay [3] were at most 1 nM, 3.16 to 31.6 nM and at most 3.16 nM, respectively.

Take `CO[C@H]1C[C@@H]2CC[C@@H](C)[C@@](O)(O2)C(=O)C(=O)N2CCCC[C@H]2C(=O)O[C@H]([C@H](C)C[C@@H]2CC[C@@H](OC(=O)NCc3cnc(N4CCN(C(=O)CCOCCN5CCN(c6ncc(C(=O)NCCOCCC(=O)N7CCc8cc(Cn9nc(-c%10ccc%11oc(N)nc%11c%10)c%10c(N)ncnc%109)ccc8C7)cn6)CC5)CC4)nc3)[C@H](OC)C2)C[C@@H](OC)[C@H](C)/C=C(\C)[C@@H](O)[C@@H](OC)C(=O)[C@H](C)C[C@H](C)/C=C/C=C/C=C/1C` [Example 65]: the IC50 is at most 1 nM in assay [1], 31.6 to 1000 nM in assay [2] and at most 3.16 nM in assay [3].

With `CO[C@H]1C[C@@H]2CC[C@@H](C)[C@@](O)(O2)C(=O)C(=O)N2CCCC[C@H]2C(=O)O[C@H]([C@H](C)C[C@@H]2CC[C@@H](OC(=O)NCc3cnc(N4CCN(C(=O)CCOCCN5CCN(c6ncc(C(=O)NCCOCCC(=O)NCCCCn7nc(-c8cnc9[nH]ccc9c8)c8c(N)ncnc87)cn6)CC5)CC4)nc3)[C@H](OC)C2)CC(=O)[C@H](C)/C=C(\C)[C@@H](O)[C@@H](OC)C(=O)[C@H](C)C[C@H](C)/C=C/C=C/C=C/1C` [Example 66], the figures for the IC50 in assay [1], in assay [2] and in assay [3] were 10 to 1000 nM, 3.16 to 31.6 nM and 31.6 to 1000 nM, respectively.

As to `CO[C@H]1C[C@@H]2CC[C@@H](C)[C@@](O)(O2)C(=O)C(=O)N2CCCC[C@H]2C(=O)O[C@H]([C@H](C)C[C@@H]2CC[C@@H](OC(=O)NCCOCCC(=O)NCc3cnc(N4CCN(C(=O)CCOCCN5CCN(c6ncc(C(=O)N7CCc8cc(Cn9nc(-c%10ccc%11oc(N)nc%11c%10)c%10c(N)ncnc%109)ccc8C7)cn6)CC5)CC4)nc3)[C@H](OC)C2)CC(=O)[C@H](C)/C=C(\C)[C@@H](O)[C@@H](OC)C(=O)[C@H](C)C[C@H](C)/C=C/C=C/C=C/1C` [Example 67], the IC50 was 10 to 1000 nM in assay [1], 31.6 to 1000 nM in assay [2] and 31.6 to 1000 nM in assay [3].

For `CO[C@H]1C[C@@H]2CC[C@@H](C)[C@@](O)(O2)C(=O)C(=O)N2CCCC[C@H]2C(=O)O[C@H]([C@H](C)C[C@@H]2CC[C@@H](OC(=O)NCCOCCC(=O)NCc3cnc(N4CCN(C(=O)CCOCCN5CCN(c6ncc(C(=O)NCCCCn7nc(-c8cnc9[nH]ccc9c8)c8c(N)ncnc87)cn6)CC5)CC4)nc3)[C@H](OC)C2)CC(=O)[C@H](C)/C=C(\C)[C@@H](O)[C@@H](OC)C(=O)[C@H](C)C[C@H](C)/C=C/C=C/C=C/1C` [Example 68], the IC50 is at most 1 nM in assay [1], above 1000 nM in assay [2] and at most 3.16 nM in assay [3].

Regarding `CO[C@H]1C[C@@H]2CC[C@@H](C)[C@@](O)(O2)C(=O)C(=O)N2CCCC[C@H]2C(=O)O[C@H]([C@H](C)C[C@@H]2CC[C@@H](OC(=O)NCCOCCC(=O)NCc3cnc(N4CCN(C(=O)CCOCCN5CCN(c6ncc(C(=O)N7CCc8cc(Cn9nc(-c%10ccc%11oc(N)nc%11c%10)c%10c(N)ncnc%109)ccc8C7)cn6)CC5)CC4)nc3)[C@H](OC)C2)C[C@@H](O)[C@H](C)/C=C(\C)[C@@H](O)[C@@H](OC)C(=O)[C@H](C)C[C@H](C)/C=C/C=C/C=C/1C` [Example 69], the IC50 in assay [1] was at most 1 nM; in assay [2], 3.16 to 31.6 nM; in assay [3], at most 3.16 nM.

For `CO[C@H]1C[C@@H]2CC[C@@H](C)[C@@](O)(O2)C(=O)C(=O)N2CCCC[C@H]2C(=O)O[C@H]([C@H](C)C[C@@H]2CC[C@@H](OC(=O)NCCOCCC(=O)NCc3cnc(N4CCN(C(=O)CCOCCN5CCN(c6ncc(C(=O)N7CCc8cc(Cn9nc(-c%10ccc%11oc(N)nc%11c%10)c%10c(N)ncnc%109)ccc8C7)cn6)CC5)CC4)nc3)[C@H](OC)C2)C[C@@H](OC)[C@H](C)/C=C(\C)[C@@H](O)[C@@H](OC)C(=O)[C@H](C)C[C@H](C)/C=C/C=C/C=C/1C` [Example 70], the IC50 in assay [1] was at most 1 nM; in assay [2], 31.6 to 1000 nM; in assay [3], at most 3.16 nM.

Take `CO[C@H]1C[C@@H]2CC[C@@H](C)[C@@](O)(O2)C(=O)C(=O)N2CCCC[C@H]2C(=O)O[C@H]([C@H](C)C[C@@H]2CC[C@@H](OC(=O)NCCOCCOCCOCCOCCOCCOCCOCCOCC(=O)N3CCc4cc(Cn5nc(-c6ccc7oc(N)nc7c6)c6c(N)ncnc65)ccc4C3)[C@H](OC)C2)CC(=O)[C@H](C)/C=C(\C)[C@@H](O)[C@@H](OC)C(=O)[C@H](C)C[C@H](C)/C=C/C=C/C=C/1C` [Example 71]: the IC50 in assay [1] is at most 1 nM; in assay [2], 3.16 to 31.6 nM; in assay [3], at most 3.16 nM.

`CO[C@H]1C[C@@H]2CC[C@@H](C)[C@@](O)(O2)C(=O)C(=O)N2CCCC[C@H]2C(=O)O[C@H]([C@H](C)C[C@@H]2CC[C@@H](OC(=O)NCc3cnc(N4CCN(C(=O)CN(C)CC(=O)NCCOCCOCCC(=O)NCCCCn5nc(-c6ccc7oc(N)nc7c6)c6c(N)ncnc65)CC4)nc3)[C@H](OC)C2)C[C@@H](OC)[C@H](C)/C=C(\C)[C@@H](O)[C@@H](OC)C(=O)[C@H](C)C[C@H](C)/C=C/C=C/C=C/1C` [Example 104]: the IC50 in assay [1] was at most 1 nM; in assay [2], above 1000 nM; in assay [3] it was at most 3.16 nM.

The values above are taken from patent US20230233569A1 (Revolution Medicines, Inc., priority 2020, published 2023).
